Results published in patent publication US4956294A, “Culture of Streptoverticillium synroense for producing an antibacterial” (Merck & Co., Inc., priority 1989, dated 1990).
≈ marks a conversion by molar mass, not a printed value. Entries after “also recorded” stand apart in the source; their conditions may differ.

What was measured:
C. perfringens 3511 = test: microbe, parasite or virus in culture; type: cell-based; details: Clostridium perfringens, 3511, 48 h
[1] = test system: Pasteurella multocida (4678); test: Protection and survival of infected mice; details: intraperitoneal
C. difficile Fox^r 4380 = test: Anaerobic agar dilution, Wilkens-Chalgren agar; type: cell-based; details: Clostridioides difficile, 48 h
E. coli 2891 = test: Agar dilution, antagonist-free medium; details: Escherichia coli, 2891, 20 h
[2] = test system: Corynebacterium pseudodiph. 261 (9742); test: Inhibition zone, agar plate; type: cell-based; details: read-out: Inhibition Zone Diameter
[3] = test system: Pseudomonas aeruginosa 979; test: Inhibition zone, agar plate; type: cell-based; details: 15λ, read-out: Inhibition Zone Diameter
[4] = test system: B. thetalotamicron Clind^r, NCCLS control strain 4420; test: Anaerobic agar dilution, Wilkens-Chalgren agar; type: cell-based; details: 48 h
C. perfringens 3510 = test: microbe, parasite or virus in culture; type: cell-based; details: Clostridium perfringens, 3510, 48 h
B. fragilis Pen^r 3214 = test: Anaerobic agar dilution, Wilkens-Chalgren agar; type: cell-based; details: Bacteroides fragilis, 48 h
[5] = test system: Ps. aeruginosa RPL11+ 3350; test: Agar dilution, trypticase soy agar; details: Pseudomonas aeruginosa, 20 h
[6] = test system: Klebsiella pneumoniae 1264; test: Inhibition zone, agar plate; type: cell-based; details: 15λ, read-out: Inhibition Zone Diameter
E. coli TEM 2+ 4351 [7] = test: Agar dilution, trypticase soy agar; details: Escherichia coli, 20 h
[8] = test system: Brucella bronchiseptica 965; test: microbe, parasite or virus in culture; type: cell-based; details: Bordetella bronchiseptica, 965, read-out: Inhibition Zone Diameter
[9] = test system: B. distasonis Pen^r, Fox^r, Clind^r 4361; test: Anaerobic agar dilution, Wilkens-Chalgren agar; type: cell-based; details: Parabacteroides distasonis, 48 h
E. coli TEM 2+ DC2 4352 = test: Agar dilution, trypticase soy agar; details: Escherichia coli, 20 h
[10] = test system: Staphylococcus aureus 108 (6538P); test: Inhibition zone, agar plate; type: cell-based; details: 15λ, read-out: Inhibition Zone Diameter
C. perfringens 3512 = test: microbe, parasite or virus in culture; type: cell-based; details: Clostridium perfringens, 3512, 48 h
Sarcina lutea 1101 (934) = test: Inhibition zone, agar plate; type: cell-based; details: Micrococcus luteus, 15λ, read-out: Inhibition Zone Diameter
[11] = test system: Vibrio percolans 1272 (8461); test: Inhibition zone, agar plate; type: cell-based; details: Comamonas terrigena, 15λ, read-out: Inhibition Zone Diameter
Prot. vulgaris 2829 = test: Agar dilution, antagonist-free medium; details: Proteus vulgaris, 2829, 20 h
C. perfringens 3508 = test: microbe, parasite or virus in culture; type: cell-based; details: Clostridium perfringens, 3508, 48 h
Sal. typhimurium 3860 = test: Agar dilution, trypticase soy agar; details: Salmonella enterica, 20 h
[12] = test system: Bifidobacterium dentium Fox^r 4427; test: Anaerobic agar dilution, Wilkens-Chalgren agar; type: cell-based; details: 48 h
Eubacterium limosum 3344 = test: Anaerobic agar dilution, Wilkens-Chalgren agar; type: cell-based; details: inoculum 10^6 cfu/spot, 35° C., 48 hours
Method: (a) Wilkens-Chalgren agar was used instead of antagonist-free medium (Roche);
(b) The inoculum/spot was about 10^6 instead of about 10^4 ;
(c) The incubation period was for 48 hours, not 24 hours; and
(d) Incubations were performed under anaerobic conditions.

Pasteurella = test: Combined therapy with erythromycin in infected mice; details: L-654,040 combined with erythromycin, Pasteurella infection
[13] = test system: Streptococcus faecium 2820; test: Inhibition zone, agar plate; type: cell-based; details: Enterococcus faecium, 15λ, read-out: Inhibition Zone Diameter
Aspergillus niger 442 = test: Inhibition zone, agar plate; type: cell-based; details: 15λ, read-out: Inhibition Zone Diameter
[14] = test system: Peptostreptococcus anaerobius 3282; test: Anaerobic agar dilution, Wilkens-Chalgren agar; type: cell-based; details: Peptostreptococcus anaerobius, 3282, 48 h
Ps. aeruginosa 4279 = test: Agar dilution, antagonist-free medium; details: Pseudomonas aeruginosa, 4279, 20 h
K. pneumoniae 4005 = test: Agar dilution, trypticase soy agar; details: Klebsiella pneumoniae, 4005, 20 h
E. coli DC2 4353 = test: Agar dilution, antagonist-free medium
E. coli TEM 2+ 4351 [15] = test: Agar dilution, antagonist-free medium; details: Escherichia coli, 20 h
Proteus mirabilis 3126 = test: Inhibition zone, agar plate; type: cell-based
B. ovatus Pen^r 3248 = test: Anaerobic agar dilution, Wilkens-Chalgren agar; type: cell-based; details: Bacteroides ovatus, 48 h

C[C@H](CNC(=O)[C@H]1N=C(c2cccc(O)c2O)O[C@@H]1C)C(=O)N[C@@H]1CCCN(O)C1=O [L-654,040, 2-(2,3-dihydroxyphenyl)-4,5-dihydro-N-[3-[(1-hydroxy-2-oxo-3(R)-piperidinyl)-amino]-2(R)-methyl-3-oxopropyl]-5R-methyl-4S-oxazolecarboxamide]
MIC (C. perfringens 3511): 64 µg/mL (≈ 147 µM) | protection against infection [1]: did not protect | statistical significance of prolonged survival ([1]; two Pasteurella tests): statistically significant at one level in two Pasteurella tests | survival time ([1]; 160 mg/kg x 2): prolongation of survival time was observed; also recorded: did prolong the survival time; also recorded: increases survival time | MIC (C. difficile Fox^r 4380): 128 µg/mL (≈ 295 µM) | MIC (E. coli 2891): > 256 µg/mL | zone of inhibition at 2000 µg/mL ([2]; 2 mg/ml in distilled H2O, 15λ): 33 mm | zone of inhibition at 500 µg/mL [2]: 28 mm | zone of inhibition at 500 µg/mL ([3]; 0.5 mg/ml in distilled H2O): 0 mm | zone of inhibition at 2000 µg/mL ([3]; 2 mg/ml in distilled H2O): 0 mm | MIC [4]: > 128 µg/mL | MIC (C. perfringens 3510): 128 µg/mL (≈ 295 µM) | solubility (Solubility in water; boiling water): ~10000 µg/mL (≈ 23000 µM) | solubility in water (Solubility in water; water, for dosing solutions): limited solubility | MIC (B. fragilis Pen^r 3214): > 128 µg/mL | MIC [5]: > 128 µg/mL | zone of inhibition at 500 µg/mL ([6]; 0.5 mg/ml in distilled H2O): 0 mm | zone of inhibition at 2000 µg/mL ([6]; 2 mg/ml in distilled H2O): 0 mm | MIC (E. coli TEM 2+ 4351 [7]): > 128 µg/mL | zone of inhibition at 500 µg/mL [8]: 16 mm | zone of inhibition at 2000 µg/mL [8]: 24 mm | MIC [9]: > 128 µg/mL | MIC (E. coli TEM 2+ DC2 4352): 128 µg/mL (≈ 295 µM) | zone of inhibition at 500 µg/mL ([10]; 0.5 mg/ml in distilled H2O): 0 mm | zone of inhibition at 2000 µg/mL ([10]; 2 mg/ml in distilled H2O): 18 mm | MIC (C. perfringens 3512): 64 µg/mL (≈ 147 µM) | zone of inhibition at 500 µg/mL (Sarcina lutea 1101 (934); 0.5 mg/ml in distilled H2O): 12 mm | zone of inhibition at 2000 µg/mL (Sarcina lutea 1101 (934); 2 mg/ml in distilled H2O): 17 mm | zone of inhibition at 500 µg/mL ([11]; 0.5 mg/ml in distilled H2O): 18 mm | zone of inhibition at 2000 µg/mL ([11]; 2 mg/ml in distilled H2O): 25 mm | MIC (Prot. vulgaris 2829): > 256 µg/mL | MIC (C. perfringens 3508): 64 µg/mL (≈ 147 µM) | MIC (Sal. typhimurium 3860): > 128 µg/mL | MIC [12]: > 128 µg/mL | MIC (Eubacterium limosum 3344): 128 µg/mL (≈ 295 µM) | efficacy of combined therapy versus erythromycin alone (Pasteurella): slightly more effective than erythromycin alone but not to a degree considered to be synergistic | zone of inhibition at 500 µg/mL ([13]; 0.5 mg/ml in distilled H2O): 0 mm | zone of inhibition at 2000 µg/mL ([13]; 2 mg/ml in distilled H2O): 0 mm | zone of inhibition at 500 µg/mL (Aspergillus niger 442; 0.5 mg/ml in distilled H2O): 0 mm | zone of inhibition at 2000 µg/mL (Aspergillus niger 442; 2 mg/ml in distilled H2O): 0 mm | MIC [14]: > 128 µg/mL | MIC (Ps. aeruginosa 4279): > 256 µg/mL | MIC (K. pneumoniae 4005): > 128 µg/mL | relative activity of parent and acetyl derivative (E. coli DC2 4353; E. coli permeability mutant): equal activity | sensitivity of strain (E. coli DC2 4353; E. coli permeability mutant): sensitive | MIC (E. coli DC2 4353; Escherichia coli, DC24353, 20 h): 32 µg/mL (≈ 73.7 µM) | MIC (E. coli TEM 2+ 4351 [15]): > 256 µg/mL | zone of inhibition at 500 µg/mL (Proteus mirabilis 3126; Proteus mirabilis, 3126, read-out: Inhibition Zone Diameter): 24 mm | zone of inhibition at 2000 µg/mL (Proteus mirabilis 3126; Proteus mirabilis, 3126, 2 mg/ml in distilled H2O, 15λ, read-out: Inhibition Zone Diameter): 25 mm | MIC (B. ovatus Pen^r 3248): > 128 µg/mL
